In patent US20110098358A1, “HUMAN BETA3 ADRENERGIC RECEPTOR LIGAND, AND FOOD OR PHARMACEUTICAL PRODUCT CONTAINING THE SAME” (RICOM CORPORATION, priority 2008, published 2011):
Structures can show the parent of a compound that is named as a salt.

Assays:
[1] = tested on: subcutaneous white preadipocytes (SAC); experiment: observation of cell morphology (SAC), fat accumulation and reaction to NE; type: cell-based, rat; conditions: NE 1×10^−6 M, 6 hours on last day
Description: (§1) Using 4 types of rat primary preadipocytes (visceral fat, […], subcutaneous white fat and brown fat), the fat accumulation-suppressing effect and fat-releasing effect by the composition of the present invention were preliminarily studied in vitro. […] The test of the adrenergic β3 receptor binding activity was carried out by the above-mentioned method. The Preadipocyte Culture kit H-3 with 3 types of cells (primary, rat, Primary Cell Co., Ltd.: visceral preadipocytes (hereinafter referred to as VAC), Lot No. FIHA-FV; subcutaneous white preadipocytes (hereinafter referred to as […] preadipocytes (hereinafter referred to as EAC), FIHA-FE) and the Brown Adipocyte Culture kit F-8 (primary, rat, Primary Cell Co., Ltd.: Lot No. HDOA-1) were used. The 3 types of preadipocytes (visceral fat, […] subcutaneous white fat) were seeded into 12 wells in a 24-well plate at a cell number of 1.5×10^6 (1.2×10^5 cells/mL/well), followed by preculture for 4 days in the adipocyte differentiation medium. Thereafter (on day 4 after seeding), the negative control substance and the test substance were prepared to a predetermined concentration in a visceral fat differentiation medium, and the prepared medium was added to the cells. The medium was replaced on days 0, 2 and 4 after the addition of the test substance (days 4, 6 and 8 after seeding), while adding freshly prepared medium after the collection. […]

[2] = tested on: visceral preadipocytes (VAC); experiment: observation of cell morphology (VAC), fat accumulation and reaction to NE; type: cell-based, rat; conditions: NE 1×10^−6 M, 6 hours on last day
Description: as §1

[3] = tested on: periepididymal preadipocytes (EAC); experiment: observation of cell morphology (EAC), fat accumulation and reaction to NE; type: cell-based, rat; conditions: NE 1×10^−6 M, 6 hours on last day
Description: as §1

[4] = tested on: brown adipocytes (BAT); experiment: observation of cell morphology (BAT), fat accumulation and reaction to NE; type: cell-based, rat; conditions: 1 hour on last day
Description: Using 4 types of rat primary preadipocytes (visceral fat, […], subcutaneous white fat and brown fat), the fat accumulation-suppressing effect and fat-releasing effect by the composition of the present invention were preliminarily studied in vitro. […] The test of the adrenergic β3 receptor binding activity was carried out by the above-mentioned method. The Preadipocyte Culture kit H-3 with 3 types of cells (primary, rat, Primary Cell Co., Ltd.: visceral preadipocytes (hereinafter referred to as VAC), Lot No. FIHA-FV; subcutaneous white preadipocytes (hereinafter referred to as […] preadipocytes (hereinafter referred to as EAC), FIHA-FE) and the Brown Adipocyte Culture kit F-8 (primary, rat, Primary Cell Co., Ltd.: Lot No. HDOA-1) were used. Cells seeded on a 24-well plate were cultured in a growth medium for 3 days, and the cells were confirmed to have become confluent. After replacing the medium with a differentiation induction medium, the culture was continued for 2 days, and the negative control substance and the test substance were prepared to a predetermined concentration with a maintenance medium, followed by addition of the prepared medium and 4 days of culture. The treatment with NE was carried out in the same manner as in VAC, using the maintenance medium. […]

[5] = biological target: T1, human recombinant adrenergic β3 receptor (Homo sapiens, UniProt P13945); experiment: adrenergic β3 receptor binding activity ([125I]cyanopindolol); conditions: HEK-293 cells, 0.5 nM [125I]cyanopindolol, Tris buffer pH 7.4, 25° C., 90 minutes
T1 construct: expressed in transfected cells; host or cells: HEK-293 cells
Description: The adrenergic β3 receptor binding activity can be measured according to, for example, the method described in Cell Biology: Feve et al, Proc. Natl. Acad. Sci. USA 91 (1994), Vol. 91, pp. 5677-5681, using HEK-293 cells which express a human recombinant adrenergic β3 receptor. That is, a solution of a sample in 1% DMSO, and 0.5 nM [^125I]cyanopindolol are added to Tris buffer (pH 7.4), and the HEK-293 cells are cultured therein at 25° C. for 90 minutes, followed by filtration and washing of the cells, and measurement of the radioactivity of the adrenergic β3 receptor binding ligand.
Each component containing the components shown in Table 1 below was dissolved in DMSO to 1 w/v %, and the resulting solution was added to an adipocyte differentiation medium (Primary Cell Co., Ltd., Lot No. 080411) to a final concentration of 10 μg/mL before use. The test of the adrenergic β3 receptor binding activity was carried out by the above-mentioned method.

T1 sequence (P13945 whole entry): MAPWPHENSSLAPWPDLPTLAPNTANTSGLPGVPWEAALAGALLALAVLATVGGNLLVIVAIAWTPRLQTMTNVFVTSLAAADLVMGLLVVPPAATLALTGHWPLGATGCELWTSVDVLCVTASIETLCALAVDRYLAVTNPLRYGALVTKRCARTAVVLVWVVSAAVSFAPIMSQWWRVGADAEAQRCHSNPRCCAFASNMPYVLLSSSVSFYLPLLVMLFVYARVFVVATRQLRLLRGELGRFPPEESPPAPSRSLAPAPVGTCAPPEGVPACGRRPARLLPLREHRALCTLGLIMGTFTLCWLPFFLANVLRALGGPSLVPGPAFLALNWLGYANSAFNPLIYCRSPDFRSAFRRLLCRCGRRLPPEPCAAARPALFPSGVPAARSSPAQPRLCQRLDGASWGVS

Row | Compound | reaction by the addition of NE (morphology) [1] | reaction by treatment with NE (morphology) [2] | reaction by the addition of NE (morphology) [3] | reaction by 1 hour of treatment with NE (morphology) [4] | Binding activity (%) [5] [%]
1 | NC[C@H](O)c1ccc(O)c(O)c1 [NE, (−)-Norepinephrine(+)-bitartrate salt hydrate] | reaction by the addition of NE was obtained | reaction by 6 hours of the treatment with NE was obtained | reaction by the addition of NE was obtained | sufficiently confirmed | 
2 | CC/C=C\C/C=C\C/C=C\CCCCCCCC(=O)O [compound 7, C18:3α] |  |  |  |  | 22
